Several values for one entry are separate records, joined by “and”; a condition that tells them apart may be missing. Equal values may be shown once.
Test system: 454973-116-R2-J3-PDC complex spheroid viability
Test: Anticancer human tumor 454973-116-R2-J3-PDC patient-derived pancreatic carcinoma cell line growth inhibition [POLQ]
Details: for viability, T/C: stronger effect = lower value
Method: Multicellular complex tumor spheroid response to Polymerase (POL) inhibitors (novobiocin, ART-558, RP6685) in combination with a variety of drugs and investigational agents in selected tumor cell lines
The POL inhibitors (novobiocin, ART-558, and RP6685) were evaluated both individually and in combination with standard of care and investigational anticancer small molecules within a complex spheroid model of solid tumors. . Complex spheroids include a stromal component modeled by human endothelial cells (HUVEC) and fibroblasts modeled by human mesenchymal stem cells (MSCs). The concentration ranges selected for each drug and investigational agent were based upon clinically achievable concentrations if the clinical Cmax of the agent was known.
Compounds. The drugs and investigational agents: novobiocin (NSC847541), ART-558 (NSC835418), RP-6685 (NSC848927), peposertib (NSC802822), ceralasertib (NSC780249), elimusertib (NSC800525), camonsertib (NSC841442), AZD-1390 (NSC803789), olaparib (NSC753686), talazoparib (NSC767125), rucaparib (NSC756644), sotorasib (NSC818433), MRTX-1133 (NSC836407), SN-38 (NSC673596), topotecan (NSC609699), epotoside (NSC141540), doxorubicin (NSC123127), gemcitabine (NSC613327), 5-fluorouracil (NSC19893), paclitaxel (NSC125973), vemurafenib (NSC761431), MSA-2 (NSC828583), SN-011 (NSC837082), adavosertib (NSC754352), prexasertib (NSC758257), carboplatin (NSC241240) and oxaliplatin (NSC266046), were obtained from the National Cancer Institute (NCI) Developmental Therapeutics Program Chemical Repository (21). The FDA-approved anticancer drug set is available from the Developmental Therapeutics Program at https://dtp.cancer.gov/organization/dscb/obtaining/. […] The stock solutions were prepared in dimethyl sulfoxide (DMSO, Sigma-Aldrich, St. Louis, MO, cat. D2650), except for the platinum compounds which were prepared in saline (Quality Biological, Gaithersburg, MD, cat. 114-055-101), at 800-fold the tested concentration and stored at -70 degrees C prior to their use. All drugs and investigational agents were tested over a range starting from a high concentration at or near the clinical Cmax and decreasing in half-log increments. If the clinical Cmax for an agent had not been determined, the highest concentration tested was 10 microM, except for SN-38, which was tested at a high concentration of 1 microM.
Cell Culture. All cells were maintained in an incubator at 37 degrees C and 5% CO2 with 95% humidity. The PDC lines were cultured according to standard operating procedures established by the NCI PDMR (https://pdmr.cancer.gov). Table 3 of the manuscript, lists the cell lines along with the number of the three cell types plated to form the mct-spheroids and media for tumor cell growth. After thawing, all PDC lines, except 997537-175-T-J1-PDC and 415267-285-R-J2-PDC, were cultured in Matrigel-coated flasks prepared with a working solution of 1X Ham's F-12 nutrient mix, without supplementation (Thermo Fisher Scientific, cat. 11765054), 100 U/mL penicillin-streptomycin (Thermo Fisher Scientific, cat. 15140122), and 2.5% Matrigel (Corning Inc., Corning, NY, cat. 354248) for the first three passages. The two PDC lines 997537-175-T-J1-PDC and 415267-285-R-J2-PDC were cultured on uncoated flasks. The 857933-349-R-J2-PDC line was cultured in 6C/Colon 1B media containing advanced DMEM/F-12 (Thermo Fisher Scientific, cat. 12634028), 10 mM HEPES (Thermo Fisher Scientific, cat. 15630080), 1X GlutaMAX supplement (Thermo Fisher Scientific, cat. 35050061), 0.1 mg/mL primocin (InvivoGen, San Diego, CA, cat. ant-pm-2), 10% defined fetal bovine serum, heat inactivated (HyClone Laboratories Inc., Logan, UT, cat. SH30070.03HI), 50% L-WRN conditioned media (ATCC, cat. CRL-3276), 1.25 mM N-Acetyl-L-cysteine (Sigma-Aldrich, cat. A9165), 10 mM nicotinamide (Sigma-Aldrich, cat. N0636), 1X B-27 supplement (Thermo Fisher Scientific, cat. 17504044), 1X N-2 supplement (Thermo Fisher Scientific, cat. […]
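Note: spheroids exposed to drugs for seven days before measurement.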
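Throughout, for viability, T/C: percent viability relative to DMSO vehicle control wells taken as 100%.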

CCc1c2c(nc3ccc(O)cc13)-c1cc3c(c(=O)n1C2)COC(=O)[C@]3(O)CC
viability, T/C (compound 0.00316 µM): 34.1% and 23.5% and 36.2%
viability, T/C (compound 0.01 µM): 12.7% and 10.6% and 14.8%
viability, T/C (compound 0.0316 µM): 13% (2×) and 7.69%
viability, T/C (compound 0.1 µM): 5.61% and 3.22% and 6.06%
viability, T/C (compound 0.316 µM): 2.43% and 3.16% and 3.18%
viability, T/C (compound 1 µM): 1.57% and 1.32% and 2.53%
IC50 (curve of compound): < 0.00316 µM

C=CC(=O)N1CCN(c2nc(=O)n(-c3c(C)ccnc3C(C)C)c3nc(-c4c(O)cccc4F)c(F)cc23)C(C)C1 (centres undefined) + COC1C(OC(N)=O)C(O)C(Oc2ccc3c(O)c(NC(=O)c4ccc(O)c(CC=C(C)C)c4)c(=O)oc3c2C)OC1(C)C
IC50 (curve of first compound, second compound 0.0316 µM): > 10 µM
IC50 (curve of first compound, second compound 0.1 µM): > 10 µM
IC50 (curve of first compound, second compound 0.316 µM): > 10 µM
IC50 (curve of first compound, second compound 1 µM): > 10 µM
IC50 (curve of first compound, second compound 3.16 µM): > 10 µM
IC50 (curve of first compound, second compound 10 µM): > 10 µM
viability, T/C (second compound 0.0316 µM, first compound 0.0316 µM): 108%
viability, T/C (second compound 0.0316 µM, first compound 0.1 µM): 106%
viability, T/C (second compound 0.0316 µM, first compound 0.316 µM): 97.8%
viability, T/C (second compound 0.0316 µM, first compound 1 µM): 111%
viability, T/C (second compound 0.0316 µM, first compound 3.16 µM): 114%
viability, T/C (second compound 0.0316 µM, first compound 10 µM): 106%
viability, T/C (second compound 0.1 µM, first compound 0.0316 µM): 108%
viability, T/C (second compound 0.1 µM, first compound 0.1 µM): 110%
viability, T/C (second compound 0.1 µM, first compound 0.316 µM): 105%
viability, T/C (second compound 0.1 µM, first compound 1 µM): 113%
viability, T/C (second compound 0.1 µM, first compound 3.16 µM): 111%
viability, T/C (second compound 0.1 µM, first compound 10 µM): 108%
viability, T/C (second compound 0.316 µM, first compound 0.0316 µM): 102%
viability, T/C (second compound 0.316 µM, first compound 0.1 µM): 107%
viability, T/C (second compound 0.316 µM, first compound 0.316 µM): 103%
viability, T/C (second compound 0.316 µM, first compound 1 µM): 113%
viability, T/C (second compound 0.316 µM, first compound 3.16 µM): 113%
viability, T/C (second compound 0.316 µM, first compound 10 µM): 108%
viability, T/C (second compound 1 µM, first compound 0.0316 µM): 113%
viability, T/C (second compound 1 µM, first compound 0.1 µM): 108%
viability, T/C (second compound 1 µM, first compound 0.316 µM): 105%
viability, T/C (second compound 1 µM, first compound 1 µM): 114%
viability, T/C (second compound 1 µM, first compound 3.16 µM): 104%
viability, T/C (second compound 1 µM, first compound 10 µM): 103%
viability, T/C (second compound 3.16 µM, first compound 0.0316 µM): 110%
viability, T/C (second compound 3.16 µM, first compound 0.1 µM): 101%
viability, T/C (second compound 3.16 µM, first compound 0.316 µM): 105%
viability, T/C (second compound 3.16 µM, first compound 1 µM): 97.9%
viability, T/C (second compound 3.16 µM, first compound 3.16 µM): 111%
viability, T/C (second compound 3.16 µM, first compound 10 µM): 102%
viability, T/C (second compound 10 µM, first compound 0.0316 µM): 101%
viability, T/C (second compound 10 µM, first compound 0.1 µM): 104%
viability, T/C (second compound 10 µM, first compound 0.316 µM): 99.8%
viability, T/C (second compound 10 µM, first compound 1 µM): 105%
viability, T/C (second compound 10 µM, first compound 3.16 µM): 110%
viability, T/C (second compound 10 µM, first compound 10 µM): 103%

From PubChem BioAssay AID1963846 (Molecular Pharmacology Branch, DTP, NCI, 2024)
